Entries after “also recorded” stand apart in the source; their conditions may differ.
Legend:
MTH1 [1] = molecular target: T1, MTH1 (Homo sapiens, UniProt P36639); assay: MTH1 catalytic assay (luminescence-based, PPi from 8-oxo-dGTP hydrolysis, PPiLight); assay type: biochemical; design: His-tag (TEV site) (cleaved yes); made in house; host or cells: E. coli BL-21(DE3), vector pETM-11
ALK = assay: Drug pull-down with immobilized compounds from SH-SY5Y cells, Western blot for ALK; assay type: binding, human; conditions: SH-SY5Y lysate
Experimental: Immobilization and Affinity Purification. […] Briefly, 25 nmol of compound was immobilised on 50 μL NHS-activated Sepharose 4 Fast Flow beads (GE Healthcare Bio-Sciences AB, Uppsala, Sweden).

[2] = tested on: SW480 colon carcinoma cells; assay: siRNA experiments (MTH1 gene silencing, colony staining); assay type: cell-based, human
Experimental: siRNA Experiments. Both a commercial anti-MTH1 siRNA set (SMARTpool ON-TARGETplus, Dharmacon) as well as a custom-synthesised siRNA (Sigma-Aldrich) were obtained. […]. For transfections, cells were seeded in 24-well plates at approximately 30% confluency 24 h prior to siRNA treatment. The next day, medium was aspirated and transfections were performed with […]in (Polyplus) according to manufacturer's instructions using a final siRNA concentration of 10 nM. Cells were incubated for 2-3 days, washed, detached with trypsin and replated in 6-well plates. After 7-10 days, medium was aspirated, cells were washed with PBS, fixed with ice-cold methanol, stained with crystal violet solution (0.5% in 25% methanol) and left to dry overnight. […]. Data were analysed using the GraphPad Prism software (t test, P<0.05).

MRC-5 lung fibroblasts = assay: Comet assay in MRC-5 lung fibroblasts; assay type: cell-based
Experimental: (§1) Comet Assay. Cells were treated with compounds for 6 days, upon which DNA single-strand breaks were assayed using the comet assay under alkali conditions. […] Cells were washed twice with PBS, harvested using a rubber scraper, pelleted by centrifugation, resuspended in PBS and mixed with 1% low-gelling-temperature agarose (Sigma type VII) that was maintained at 37° C. The mixture of cells and agarose was layered onto frosted glass slides pre-coated with 0.5% agarose and slides were placed on ice to gel. Slides were maintained in the dark for all subsequent steps. […] After electrophoresis for 25 minutes at 25 volts, slides were placed at 4° C. over-night, in the dark. The following day, slides were neutralized with 0.4 M Tris-HCl pH 7.0 for 1 hour and stained with SYBR Gold (Invitrogen, diluted 1:10,000 in distilled water) for 30 minutes. Comet tail moments (defined as the average distance migrated by the DNA multiplied by the fraction of DNA in the comet tail) were scored using the CellProfiler cell image analysis software.

MTH1 [3] = molecular target: T1, MTH1; assay: Isothermal titration calorimetry (direct binding assay); design: His-tag (TEV site) (cleaved yes); made in house; host or cells: E. coli BL21 DE3; conditions: 15° C., 50 mM Tris-HCl pH 7.8, 150 mM NaCl
SW480 cells [4] = assay: Alkaline comet assay (DNA single strand breaks) in SW480 cells; assay type: cell-based, human; conditions: 6 days treatment, alkali conditions
Experimental: as §1

SW480 cells [5] = assay: Indirect immunofluorescence for 53BP1 foci in SW480 cells; assay type: cell-based, human; conditions: 6 days treatment
Experimental: Indirect Immunofluorescence. Cells were treated with compounds for 6 days, following which they were adhered to glass coverslips, washed with PBS and then fixed with 3% paraformaldehyde in PBS for 20 minutes. Fixed cells were rinsed with PBS and permebealised with 0.5% Triton-X-100 for 5 minutes. PBS washed slides were incubated for 1 hour with 10% FCS and 0.1% Triton-X-100 in PBS following which cells were stained with an anti-53BP1 monoclonal antibody (H-300, Santa Cruz, diluted 1:600), in 10% FCS and 0.1% Triton-X-100 in PBS. […] After a PBS wash, DNA was counterstained with DAPI (Sigma-Aldrich) for 10 minutes and the coverslips were mounted in Fluorescent Mounting Medium (Dako). Images were analysed with a Zeiss fluorescent microscope at 63 times magnification with supporting software.

BJ skin fibroblasts = assay: Colony formation assay with untransformed BJ skin fibroblasts; assay type: cell-based, human; conditions: 10 days incubation; listed as (R)-enantiomer
BJ fibroblasts = assay: 8-oxo-guanine staining in BJ cells; conditions: fixed 72 h later
[6] = tested on: SH-SY5Y, NCI-H3122 and NCI-H1648 cell lysates; assay: Chemical proteomics competition pull-downs (iTRAQ) in SH-SY5Y, NCI-H3122 and NCI-H1648 lysates; assay type: binding, human; conditions: competition with 20 μM unmodified crizotinib
[7] = tested on: Ewing's sarcoma family of tumours (ESFT) cells
SW480 cells [8] = assay: Colony formation assay using SW480 cells; assay type: cell-based, human; conditions: K-Ras-mutated SW480 colon carcinoma
Experimental: Colony Formation Assay Using SW480 Cells. One day before treatment, 10^4 cells were seeded per well in 6-well plates and incubated for 24 h. The next day DMSO (equal to highest amount of compound dilution, maximum 0.2%) or compounds in increasing concentrations were added and cells incubated at 37° C., 5% CO2, for 7-10 days. After washing with PBS (Gibco), cells were fixed with ice-cold methanol, stained with crystal violet solution (0.5% in 25% methanol) and left to dry overnight. For quantification of results, UV absorbance of crystal violet was determined at 595 nm after solubilisation by 70% ethanol. Data were analysed using non-linear regression analysis utilizing the GraphPad Prism software.

[9] = error of nonlinear least squares fit

With `COc1cc(N2CCC(N3CCN(C)CC3)CC2)ccc1Nc1ncc(Cl)c(Nc2ccccc2S(=O)(=O)C(C)C)n1` [NVP-TAE684, reference compound] as the compound, how does the “inhibition of MTH1 catalytic activity at 100 μM” value (MTH1 [1]; concentrations of 100 μM, data not shown) read?
The value was “did not exhibit any significant inhibition”.

Which “inhibition of MTH1 catalytic activity (in words)” value (MTH1 [1]; 8-oxo-dGTP hydrolysis) does the source give for `CC(Oc1cc(-c2cnn(C3CCN(CCCN)CC3)c2)cnc1N)c1c(Cl)ccc(F)c1Cl` (stereo not drawn) [CeMM-146] here?
Its value is “nanomolar inhibition”.

What about the “enrichment / binding of ALK isoforms by immobilized compound” value (ALK) of the same compound?
Its value is “enriches both ALK isoforms to highest extent”.

“anti-MTH1 siRNA: siRNA against MTH1; custom sequence CGACGACAGCUACUGGUUU (SEQ ID No. 48) or SMARTpool set (listed as RNA, chemistry not given here)” was tested. Which “viability of SW480 cells after MTH1 gene silencing” value [2] did it give?
Its value is “impairs viability”.

For `CC(Oc1cc(-c2cnn(C3CCNCC3)c2)cnc1N)c1c(Cl)ccc(F)c1Cl` (racemic) [racemic crizotinib, 3-[1-(2,6-dichloro-3-fluoro-phenyl)-ethoxy]-5-(1-piperidin-4-yl-1H-pyrazol-4-yl)-pyridin-2-ylamine], which “DNA damage in comet assay” value (MRC-5 lung fibroblasts) is on record?
Its value is “induced DNA damage”.

Which TΔS (MTH1 [3]) does the source give for `COc1ccc2nc3c(c(C)nn3C)c(NCCOCCO)c2c1` [SCH51344] here?
The TΔS was 3.17 kcal/mol.

And the Kd (MTH1 [3]; [9])?
The Kd was 49 ± 5.6 nM.

And the ΔH (MTH1 [3]; [9])?
The ΔH was -6.479 ± 0.045 kcal/mol.

What about the “tail moment in the comet assay” value (SW480 cells [4]) of the same compound?
Its value is “yielded a significant tail moment”.

What about the “number of 53BP1 foci” value (SW480 cells [5]) of the same compound?
Its value is “increase the number of 53BP1 foci”.

Which results are given for `C[C@@H](Oc1cc(-c2cnn(C3CCNCC3)c2)cnc1N)c1c(Cl)ccc(F)c1Cl` [(R)-crizotinib, 3-[1-(2,6-dichloro-3-fluoro-phenyl)-ethoxy]-5-(1-piperidin-4-yl-1H-pyrazol-4-yl)-pyridin-2-ylamine]?
toxicity on non-transformed BJ skin fibroblasts (colony formation) (BJ skin fibroblasts): significantly impairs the growth; also recorded: higher toxicity; staining of anti-8-oxo-guanine antibody (BJ fibroblasts): not; targets identified by chemical proteomics [6]: common target of crizotinib in all samples; growth inhibition of ESFT cells [7]: inhibited the growth of these cells at low nanomolar concentrations

For `Cn1cc(-c2ccc3nnc(C(F)(F)c4ccc5ncccc5c4)n3n2)cn1` [JNJ-38877605, reference compound], which “colony formation / growth of SW480 cells” value (SW480 cells [8]) is on record?
The value was “does not suppress growth”.
